Patent US20080009418A1, “Selective Inhibitors” (Alchemia LTD., priority 2004, published 2008)

Key:
Mouse urotensin (mUR2) = molecular target: T1, Mouse urotensin (mUR2) (Mus musculus, UniProt Q8VIH9); experiment: Radioligand binding, mouse urotensin mUR2 membranes, FlashPlate, [125I]-Urotensin II; conditions: compound at 10 μM, [125I]-Urotensin II
T1 construct: purchased Perkin Elmer Biosignal
T1 sequence (Q8VIH9 1-385): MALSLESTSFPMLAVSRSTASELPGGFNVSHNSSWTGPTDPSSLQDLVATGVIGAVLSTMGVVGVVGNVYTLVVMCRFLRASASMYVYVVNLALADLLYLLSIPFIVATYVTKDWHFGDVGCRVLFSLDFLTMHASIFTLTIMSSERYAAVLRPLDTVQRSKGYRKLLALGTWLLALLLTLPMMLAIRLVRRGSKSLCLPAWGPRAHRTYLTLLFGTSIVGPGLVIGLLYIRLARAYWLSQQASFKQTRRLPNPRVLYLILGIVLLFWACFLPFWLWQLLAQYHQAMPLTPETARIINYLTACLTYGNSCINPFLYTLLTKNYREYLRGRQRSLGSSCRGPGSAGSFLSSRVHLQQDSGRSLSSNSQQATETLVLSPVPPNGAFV
Method in brief: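 Cloned mouse urotensin (mUR2) receptor membranes from Perkin Elmer Biosignal were immobilized in FlashPlate microplates using a proprietary coating. Each well got 19.5 μl buffer, then 0.5 μl of DMSO, reference ligand, or compound. Adding 5 μl of [125I]-Urotensin II, diluted to 5× final concentration in binding buffer, started binding. Plates were sealed with TopSeal-A and incubated 1 hour at room temperature in the dark. Wells were counted for 30 seconds each on a TopCount after a 60-second delay, and percentage inhibition was calculated.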

Human melanocortin (MC5) = molecular target: T2, Human melanocortin (MC5) (Homo sapiens, UniProt P33032); experiment: Radioligand binding, human melanocortin MC5 membranes, FlashPlate, [125I]-NDP-αMSH; conditions: compound at 10 μM, [125I]-NDP-αMSH
T2 construct: purchased Perkin Elmer Biosignal
Method in brief: (§1)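 Cloned human receptor membranes were coated onto FlashPlate wells and incubated with radioligand and compound (added from a 0.5 mM DMSO daughter plate) for 1 hour at room temperature in the dark. Scintillation counting gave percent inhibition, with DMSO defining total and reference ligand defining non-specific binding.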

Human neurokinin (NK1) = molecular target: T3, Human neurokinin (NK1) (Homo sapiens, UniProt P25103); experiment: Radioligand binding, human neurokinin NK1 membranes, filtration, [125I]-Substance P; conditions: compound at 10 μM, [125I]-Substance P
T3 construct: purchased Perkin Elmer Biosignal
Method in brief: (§2)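 Filtration binding on cloned human receptor membranes (1 Unit/well), [125I]-Substance P for NK1 and [3H]-Diprenorphine for KOP, 1 h at room temperature. Filters PEI-presoaked, washed with cold 50 mM Tris-HCl pH 7.4, counted by scintillation; percent inhibition calculated, reference ligand defining non-specific binding.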

[1] = molecular target: T4, Human neuropeptide Y (NPY-Y1) (Homo sapiens, UniProt P25929); experiment: Radioligand binding, human neuropeptide Y NPY-Y1 membranes, FlashPlate, [125I]-PYY; conditions: compound at 10 μM, [125I]-PYY
T4 construct: purchased Perkin Elmer Biosignal
T4 sequence (P25929 1-384): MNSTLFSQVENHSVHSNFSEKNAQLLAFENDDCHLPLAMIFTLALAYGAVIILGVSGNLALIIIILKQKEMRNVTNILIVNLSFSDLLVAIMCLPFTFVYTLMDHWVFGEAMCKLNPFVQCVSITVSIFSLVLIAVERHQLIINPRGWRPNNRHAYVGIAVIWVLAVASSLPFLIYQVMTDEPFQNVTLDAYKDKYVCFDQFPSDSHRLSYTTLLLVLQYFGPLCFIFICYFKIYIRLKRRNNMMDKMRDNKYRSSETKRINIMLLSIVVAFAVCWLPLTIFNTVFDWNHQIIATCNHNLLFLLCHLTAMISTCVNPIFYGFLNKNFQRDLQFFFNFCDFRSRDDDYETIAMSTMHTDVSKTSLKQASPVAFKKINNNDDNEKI
Method in brief: as §1

Human opioid (ORL1) = molecular target: T5, Human opioid (ORL1) (Homo sapiens, UniProt P41146); experiment: Radioligand binding, human opioid ORL1 membranes, FlashPlate, [125I]-Nociceptin; conditions: compound at 10 μM, [125I]-Nociceptin
T5 construct: purchased Perkin Elmer Biosignal
Method in brief: as §1

[2] = molecular target: T6, Human melanin-concentrating hormone (MCH1) (Homo sapiens, UniProt Q99705); experiment: Radioligand binding, human melanin-concentrating hormone MCH1 membranes, FlashPlate, [125I]-S36057; conditions: compound at 10 μM, 10 µM
T6 construct: purchased Perkin Elmer Biosignal
Method in brief: as §1

Human μ-opioid (MOP) = molecular target: T7, Human μ-opioid (MOP) (Homo sapiens, UniProt P35372); experiment: Radioligand binding, human μ-opioid (MOP) membranes, FlashPlate, [3H]-Naloxone; conditions: compound at 10 μM, [3H]-Naloxone
T7 construct: purchased Perkin Elmer Biosignal
Method in brief: as §1

Human δ-opioid (DOP) = molecular target: T8, Human δ-opioid (DOP) (Homo sapiens, UniProt P41143); experiment: Radioligand binding, human δ-opioid (DOP) membranes, FlashPlate, [3H]-Bremazocine; conditions: compound at 10 μM, [3H]-Bremazocine
T8 construct: purchased Perkin Elmer Biosignal
Method in brief: as §1

Human κ-Opioid (KOP) = molecular target: T9, Human κ-Opioid (KOP) (Homo sapiens, UniProt P41145); experiment: Radioligand binding, human κ-opioid (KOP) membranes, filtration, [3H]-Diprenorphine; conditions: compound at 10 μM, [3H]-Diprenorphine
T9 construct: purchased Perkin Elmer Biosignal
Method in brief: as §2

Human Melanocortin (MC3) = molecular target: T10, Human Melanocortin (MC3) (Homo sapiens, UniProt P41968); experiment: Radioligand binding, human melanocortin MC3 membranes, FlashPlate, [125I]-NDP-αMSH; conditions: compound at 10 μM, [125I]-NDP-αMSH, 10 µM
T10 construct: purchased Perkin Elmer Biosignal
Method in brief: as §1

Human Melanocortin (MC4) = molecular target: T11, Human Melanocortin (MC4) (Homo sapiens, UniProt P32245); experiment: Radioligand binding, human melanocortin MC4 membranes, FlashPlate, [125I]-NDP-αMSH; conditions: compound at 10 μM, [125I]-NDP-αMSH, 10 µM
T11 construct: purchased Perkin Elmer Biosignal
Method in brief: as §1

T5 sequence (P41146 whole entry): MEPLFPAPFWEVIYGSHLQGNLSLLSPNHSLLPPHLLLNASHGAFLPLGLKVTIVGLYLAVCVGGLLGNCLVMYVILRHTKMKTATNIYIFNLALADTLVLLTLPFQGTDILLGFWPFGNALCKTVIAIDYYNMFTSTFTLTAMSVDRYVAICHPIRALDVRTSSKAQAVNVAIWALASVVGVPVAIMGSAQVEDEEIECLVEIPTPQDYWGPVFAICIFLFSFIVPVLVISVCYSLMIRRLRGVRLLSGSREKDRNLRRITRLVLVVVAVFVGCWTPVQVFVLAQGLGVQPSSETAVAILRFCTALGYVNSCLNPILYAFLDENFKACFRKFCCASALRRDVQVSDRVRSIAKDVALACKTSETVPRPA
T8 sequence (P41143 whole entry): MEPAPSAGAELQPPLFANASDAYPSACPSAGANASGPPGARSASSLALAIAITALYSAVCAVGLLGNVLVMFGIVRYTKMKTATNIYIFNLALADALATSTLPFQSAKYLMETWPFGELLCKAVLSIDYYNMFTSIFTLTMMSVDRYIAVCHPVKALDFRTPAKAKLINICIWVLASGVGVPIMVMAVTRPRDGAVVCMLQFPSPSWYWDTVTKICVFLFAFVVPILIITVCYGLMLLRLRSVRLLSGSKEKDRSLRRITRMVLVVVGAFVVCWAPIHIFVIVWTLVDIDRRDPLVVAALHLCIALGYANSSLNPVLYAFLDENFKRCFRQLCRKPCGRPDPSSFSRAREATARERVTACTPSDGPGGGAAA
T11 sequence (P32245 whole entry): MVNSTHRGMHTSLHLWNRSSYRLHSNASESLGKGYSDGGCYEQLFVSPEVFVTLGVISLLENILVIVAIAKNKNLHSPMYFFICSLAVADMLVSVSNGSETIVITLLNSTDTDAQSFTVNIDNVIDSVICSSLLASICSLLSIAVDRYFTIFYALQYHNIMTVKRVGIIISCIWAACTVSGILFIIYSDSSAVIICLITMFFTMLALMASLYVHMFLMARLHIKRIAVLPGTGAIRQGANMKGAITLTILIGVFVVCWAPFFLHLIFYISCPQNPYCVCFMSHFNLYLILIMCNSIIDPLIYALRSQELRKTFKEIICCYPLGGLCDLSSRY
T3 sequence (P25103 whole entry): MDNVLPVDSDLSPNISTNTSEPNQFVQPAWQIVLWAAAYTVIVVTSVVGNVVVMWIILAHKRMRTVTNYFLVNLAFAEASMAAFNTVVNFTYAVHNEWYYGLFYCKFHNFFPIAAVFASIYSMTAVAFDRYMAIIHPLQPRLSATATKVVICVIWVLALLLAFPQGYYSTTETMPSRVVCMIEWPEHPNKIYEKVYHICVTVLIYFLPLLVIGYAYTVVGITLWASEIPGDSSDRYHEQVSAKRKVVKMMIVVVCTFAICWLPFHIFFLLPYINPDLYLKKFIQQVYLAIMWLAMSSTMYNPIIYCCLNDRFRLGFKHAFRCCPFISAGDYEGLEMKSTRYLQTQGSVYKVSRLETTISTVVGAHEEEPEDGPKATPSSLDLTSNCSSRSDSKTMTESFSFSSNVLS
T7 sequence (P35372 whole entry): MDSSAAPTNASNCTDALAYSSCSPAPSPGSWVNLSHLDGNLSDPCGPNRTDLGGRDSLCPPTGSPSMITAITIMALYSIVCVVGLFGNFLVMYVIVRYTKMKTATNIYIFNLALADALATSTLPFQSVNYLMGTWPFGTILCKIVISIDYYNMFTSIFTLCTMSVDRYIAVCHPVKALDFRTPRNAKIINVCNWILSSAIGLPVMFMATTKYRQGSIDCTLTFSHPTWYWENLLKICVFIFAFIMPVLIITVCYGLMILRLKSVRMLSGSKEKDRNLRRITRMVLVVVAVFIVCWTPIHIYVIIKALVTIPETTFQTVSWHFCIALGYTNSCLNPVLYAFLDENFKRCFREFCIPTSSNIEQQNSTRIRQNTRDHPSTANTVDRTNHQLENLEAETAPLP
T9 sequence (P41145 whole entry): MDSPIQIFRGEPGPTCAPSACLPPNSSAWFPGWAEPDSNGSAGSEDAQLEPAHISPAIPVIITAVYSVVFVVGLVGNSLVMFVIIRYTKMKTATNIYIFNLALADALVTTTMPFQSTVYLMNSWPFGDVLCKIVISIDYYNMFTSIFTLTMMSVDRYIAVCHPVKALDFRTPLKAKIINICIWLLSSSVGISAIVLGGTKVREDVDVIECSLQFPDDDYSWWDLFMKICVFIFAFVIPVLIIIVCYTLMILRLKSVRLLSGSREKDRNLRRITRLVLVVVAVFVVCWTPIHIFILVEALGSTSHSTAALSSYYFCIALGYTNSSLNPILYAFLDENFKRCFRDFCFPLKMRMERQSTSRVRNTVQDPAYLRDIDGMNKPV
T10 sequence (P41968 whole entry): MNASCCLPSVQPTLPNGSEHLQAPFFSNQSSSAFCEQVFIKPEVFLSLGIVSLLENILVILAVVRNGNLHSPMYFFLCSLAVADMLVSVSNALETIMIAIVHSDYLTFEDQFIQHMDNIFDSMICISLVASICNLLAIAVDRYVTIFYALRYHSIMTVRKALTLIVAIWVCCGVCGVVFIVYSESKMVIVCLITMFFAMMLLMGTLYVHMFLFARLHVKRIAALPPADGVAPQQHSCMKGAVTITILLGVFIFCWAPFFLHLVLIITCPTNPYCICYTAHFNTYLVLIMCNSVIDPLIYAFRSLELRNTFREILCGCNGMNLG
T2 sequence (P33032 whole entry): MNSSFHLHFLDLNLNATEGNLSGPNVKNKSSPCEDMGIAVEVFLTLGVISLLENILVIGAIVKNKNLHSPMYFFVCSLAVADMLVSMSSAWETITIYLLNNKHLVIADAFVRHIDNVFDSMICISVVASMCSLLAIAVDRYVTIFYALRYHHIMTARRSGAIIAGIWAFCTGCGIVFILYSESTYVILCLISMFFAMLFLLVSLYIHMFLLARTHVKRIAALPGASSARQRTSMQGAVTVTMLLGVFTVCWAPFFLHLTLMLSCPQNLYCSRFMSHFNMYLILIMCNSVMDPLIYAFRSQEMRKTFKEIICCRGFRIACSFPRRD
T6 sequence (Q99705 whole entry): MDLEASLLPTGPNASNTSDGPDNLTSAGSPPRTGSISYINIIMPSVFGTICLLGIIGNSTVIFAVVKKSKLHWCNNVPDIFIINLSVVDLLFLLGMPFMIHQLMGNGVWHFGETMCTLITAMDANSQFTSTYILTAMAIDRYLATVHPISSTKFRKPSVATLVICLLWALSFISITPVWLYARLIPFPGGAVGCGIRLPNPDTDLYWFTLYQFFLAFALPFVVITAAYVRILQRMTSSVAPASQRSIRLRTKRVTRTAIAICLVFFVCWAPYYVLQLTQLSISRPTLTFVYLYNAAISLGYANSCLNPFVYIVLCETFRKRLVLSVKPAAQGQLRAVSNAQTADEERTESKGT

Structure (SMILES): NCCCC(=O)NC1C(OCc2ccc3ccccc3c2)OC(COCc2ccc3ccccc3c2)C(O)C1OCc1ccc2ccccc2c1 (single isomer, unassigned) [compound 460]
- A11: inhibition of radioligand binding (Mouse urotensin (mUR2); mouse mUR2 membranes): − (“−” indicates less than 50% inhibition at 10 μM)
- A5: inhibition of radioligand binding (Human melanocortin (MC5); human MC5 membranes): + (“+” indicates greater than 50% inhibition at 10 μM)
- A8: inhibition of radioligand binding (Human neurokinin (NK1); human NK1 membranes): + (“+” indicates greater than 50% inhibition at 10 μM)
- A9: inhibition of radioligand binding ([1]; human NPY-Y1 membranes): − (“−” indicates less than 50% inhibition at 10 μM)
- A10: inhibition of radioligand binding (Human opioid (ORL1); human ORL1 membranes, 10 µM): − (“−” indicates less than 50% inhibition at 10 μM)
- A6: inhibition of radioligand binding ([2]; [125I]-S36057, human MCH1 membranes): − (“−” indicates less than 50% inhibition at 10 μM)
- A7: inhibition of radioligand binding (Human μ-opioid (MOP); human MOP membranes, 10 µM): − (“−” indicates less than 50% inhibition at 10 μM)
- A1: inhibition of radioligand binding (Human δ-opioid (DOP); human DOP membranes): − (“−” indicates less than 50% inhibition at 10 μM)
- A2: inhibition of radioligand binding (Human κ-Opioid (KOP); human KOP membranes): − (“−” indicates less than 50% inhibition at 10 μM)
- A3: inhibition of radioligand binding (Human Melanocortin (MC3); human MC3 membranes): − (“−” indicates less than 50% inhibition at 10 μM)
- A4: inhibition of radioligand binding (Human Melanocortin (MC4); human MC4 membranes): − (“−” indicates less than 50% inhibition at 10 μM)

Structure (SMILES): N=C(N)NCC(=O)N[C@H]1C(OCc2ccc(Cl)cc2)O[C@H](COCc2ccccc2)[C@@H](O)[C@@H]1OCc1ccc(-c2ccccc2)cc1 (stereo partly shown) [compound 518]
- A11: inhibition of radioligand binding, mouse urotensin (mUR2) (Mouse urotensin (mUR2)): − (“−” indicates less than 50% inhibition at 10 μM)
- A5: inhibition of radioligand binding, human melanocortin (MC5) (Human melanocortin (MC5); 10 µM): − (“−” indicates less than 50% inhibition at 10 μM)
- A8: inhibition of radioligand binding, human neurokinin (NK1) (Human neurokinin (NK1)): + (“+” indicates greater than 50% inhibition at 10 μM)
- A9: inhibition of radioligand binding, human neuropeptide Y (NPY-Y1) [1]: − (“−” indicates less than 50% inhibition at 10 μM)
- A10: inhibition of radioligand binding, human opioid (ORL1) (Human opioid (ORL1)): − (“−” indicates less than 50% inhibition at 10 μM)
- A6: inhibition of radioligand binding, human melanin-concentrating hormone (MCH1) ([2]; [125I]-S36057): − (“−” indicates less than 50% inhibition at 10 μM)
- A7: inhibition of radioligand binding, human μ-opioid (MOP) (Human μ-opioid (MOP)): − (“−” indicates less than 50% inhibition at 10 μM)
- A1: inhibition of radioligand binding, human δ-opioid (DOP) (Human δ-opioid (DOP)): − (“−” indicates less than 50% inhibition at 10 μM)
- A2: inhibition of radioligand binding, human κ-opioid (KOP) (Human κ-Opioid (KOP)): − (“−” indicates less than 50% inhibition at 10 μM)
- A3: inhibition of radioligand binding, human melanocortin (MC3) (Human Melanocortin (MC3)): − (“−” indicates less than 50% inhibition at 10 μM)
- A4: inhibition of radioligand binding, human melanocortin (MC4) (Human Melanocortin (MC4)): − (“−” indicates less than 50% inhibition at 10 μM)
